US8278100B2, “Lasonolide compounds as reagents for inducing premature chromosome condensation and methods for treating disorders” (The United States of America, as Represented by the …, priority 2008, dated 2012)

Experiments:
tumor cells = assay: Premature chromosome condensation (PCC) induction, cells not specified; format: cell-based; conditions: co-treatment with Lasonolide A
Method: (§1) Burkitt's Lymphoma CA46 cells (500,000) (FIG. 1B) or breast cancer MDA-MB-231 cells (500,000) (FIG. 1A) were treated by 100 nM Lasonolide A (stock solution 100 μM in DMSO) for 1 h. Lymphocytes were treated with 200 nM Lasonolide A for 1 h. Cells were harvested with centrifuging on 2,000 rpm for 5 min at 4° C. Pellets were washed once by PBS and re-suspended in 1 mL PBS. 200 μL cells mixture were added to the chamber for cytospining. Cells were cytospun on 800 rpm for 10 min; slides were fixed in fresh-made 4% paraformaldehyde fixation for 20 min at room temperature, then moved to 70% ethanol for 20 min. Slides were stained with Propidium Iodide (“PI”) (20 μg/mL) and RNase A (100 μg/mL) for 15 min. Slides were washed with PBS for three times and mounted with Vectashield anti-fade mounting media (Vector Laboratories, Inc., Burlingame, Calif.). Images were taken using a Nikon Eclipse TE-300 confocal microscope.

[1] = test system: Burkitt's Lymphoma CA46 cells; assay: PCC induction and PI staining; format: cell-based, human; conditions: 1 μM OA, 1 h
Method: as §1

human lymphocytes = assay: PCC induction and PI staining; format: cell-based; conditions: 1 μM OA, without additional reagents

Row | SMILES | effect of the added inhibitor on PCC induction by Lasonolide A (tumor cells) | cells with premature chromosome condensation (PCC) [1] [%] | lymphocytes going to PCC (human lymphocytes) [%]
1 | C[C@@]1(CO)[C@H](O)CC[C@@]2(C)[C@H]1CC[C@H]1C[C@@H]3C[C@@]12CC[C@]3(O)CO [aphidicolin] | had no effect on PCC induction |  | 
2 | C[C@@H](CN1CC(=O)NC(=O)C1)N1CC(=O)NC(=O)C1 [ICRF187] | changed the pattern of PCC |  | 
3 | C=C1[C@@H](O)[C@@H]2O[C@]3(CC[C@H](/C=C/[C@@H](C)[C@@H]4CC(C)=C[C@@]5(O[C@H](C[C@@](C)(O)C(=O)O)CC[C@H]5O)O4)O3)CC[C@H]2O[C@@H]1[C@@H](O)C[C@H](C)[C@H]1O[C@@]2(CCCCO2)CC[C@H]1C [OA, Okadaic Acid, reference compound] |  | 31 | 1.7
4 | CN1CC[C@H](c2c(O)cc(O)c3c(=O)cc(-c4ccccc4Cl)oc23)[C@H](O)C1 [Flavorpiridol] | could not influence the PCC induction |  | 
5 | CC[C@H](CO)Nc1nc(NCc2ccccc2)c2ncn(C(C)C)c2n1 [Roscovitine] | could not influence the PCC induction |  | 
